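Test compounds were applied to cells in 96-well plates for 48 hours at 5 doses. TGI denotes the concentration required for complete inhibition of growth.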
Assays:
Experiment in all cases: DTP human tumour cell line panel, 48 h
[1] = system: 786-0 renal
[2] = system: A498 renal
[3] = system: A549 NSCLC
[4] = system: ACHN renal
[5] = system: CAKI-1 renal
[6] = system: CCRF-CEM leukemia
[7] = system: COLO 205 colon
[8] = system: DU-145 prostate
[9] = system: EKVX NSCLC
[10] = system: HCC-2998 colon
[11] = system: HCT-116 colon
[12] = system: HCT-15 colon
[13] = system: HL-60(TB) leukemia
[14] = system: HOP-62 NSCLC
[15] = system: HOP-92 NSCLC
[16] = system: HS 578T breast
[17] = system: HT29 colon
[18] = system: IGROV1 ovarian
[19] = system: K-562 leukemia
[20] = system: KM12 colon
[21] = system: LOX IMVI melanoma
[22] = system: M14 melanoma
[23] = system: MALME-3M melanoma
[24] = system: MCF7 breast
[25] = system: MDA-MB-231 breast
[26] = system: MDA-MB-435
[27] = system: MDA-N
[28] = system: MOLT-4 leukemia
[29] = system: NCI-H226 lung
[30] = system: NCI-H23 lung
[31] = system: NCI-H460 lung
[32] = system: NCI-H522 lung
[33] = system: NCI/ADR-RES ovarian
[34] = system: OVCAR-3 ovarian
[35] = system: OVCAR-4 ovarian
[36] = system: OVCAR-5 ovarian
[37] = system: OVCAR-8 ovarian
[38] = system: PC-3 prostate
[39] = system: RPMI-8226 leukemia
[40] = system: RXF 393 renal
[41] = system: SF-268 CNS
[42] = system: SF-295 CNS
[43] = system: SF-539 CNS
[44] = system: SK-MEL-2 melanoma
[45] = system: SK-MEL-28 melanoma
[46] = system: SK-MEL-5 melanoma
[47] = system: SK-OV-3 ovarian
[48] = system: SN12C renal
[49] = system: SNB-19 CNS
[50] = system: SNB-75 CNS
[51] = system: SR leukemia
[52] = system: SW-620 colon
[53] = system: T-47D breast
[54] = system: TK-10 renal
[55] = system: U251 CNS
[56] = system: UACC-257 melanoma
[57] = system: UACC-62 melanoma
[58] = system: UO-31 renal
[59] = system: BT-549 breast

In the case of `CC(C)CC1C(=O)NCCC(NC(=O)C(N)Cc2ccc(O)cc2)C(=O)NC(Cc2ccccc2)C(=O)NC(Cc2ccccc2)NC1=O` (stereo unspecified), the TGI [1] is reported as over 100 µM, the TGI [2] is reported as over 100 µM and the TGI [3] is reported as over 100 µM. For the same compound, the TGI [4] was over 100 µM, the TGI [5] was over 100 µM and the TGI [6] was over 100 µM. For the same compound, the TGI [7] was over 100 µM, the TGI [8] was over 100 µM and the TGI [9] was over 100 µM. The TGI [10] was over 100 µM, the TGI [11] was over 100 µM and the TGI [12] was over 100 µM. The TGI [13] was over 100 µM, the TGI [14] was over 100 µM and the TGI [15] was over 100 µM. For the same compound, the TGI [16] was over 100 µM, the TGI [17] was over 100 µM and the TGI [18] was over 100 µM. For the same compound, the TGI [19] was over 100 µM, the TGI [20] was over 100 µM and the TGI [21] was over 100 µM. The TGI [22] was over 100 µM, the TGI [23] was over 100 µM and the TGI [24] was over 100 µM. For the same compound, the TGI [25] was over 100 µM, the TGI [26] was over 100 µM and the TGI [27] was over 100 µM. It also gave a TGI [28] of over 100 µM, a TGI [29] of over 100 µM and a TGI [30] of over 100 µM. It also gave a TGI [31] of over 100 µM, a TGI [32] of over 100 µM and a TGI [33] of over 100 µM. The TGI [34] was over 100 µM, the TGI [35] was over 100 µM and the TGI [36] was over 100 µM. For the same compound, the TGI [37] was over 100 µM, the TGI [38] was over 100 µM and the TGI [39] was over 100 µM. The TGI [40] was over 100 µM, the TGI [41] was over 100 µM and the TGI [42] was over 100 µM. It also gave a TGI [43] of over 100 µM, a TGI [44] of over 100 µM and a TGI [45] of over 100 µM. It also gave a TGI [46] of over 100 µM, a TGI [47] of over 100 µM and a TGI [48] of over 100 µM. For the same compound, the TGI [49] was over 100 µM, the TGI [50] was over 100 µM and the TGI [51] was over 100 µM. For the same compound, the TGI [52] was over 100 µM, the TGI [53] was over 100 µM and the TGI [54] was over 100 µM. It also gave a TGI [55] of over 100 µM, a TGI [56] of over 100 µM and a TGI [57] of over 100 µM. It also gave a TGI [58] of over 100 µM.

`N#Cc1c(O)c(N=Nc2ccccc2F)c(=O)n2c1[nH]c1ccccc12` gave a TGI [1] of over 100 µM, a TGI [2] of over 100 µM and a TGI [3] of over 100 µM. The TGI [4] was over 100 µM, the TGI [59] was over 100 µM and the TGI [6] was over 100 µM. The TGI [7] was over 100 µM, the TGI [8] was over 100 µM and the TGI [9] was over 100 µM. It also gave a TGI [10] of over 100 µM, a TGI [11] of over 100 µM and a TGI [12] of over 100 µM. The TGI [13] was over 100 µM, the TGI [14] was over 100 µM and the TGI [15] was 60.3 µM. For the same compound, the TGI [16] was 65.4 µM, the TGI [17] was over 100 µM and the TGI [18] was over 100 µM. It also gave a TGI [19] of over 100 µM, a TGI [21] of over 100 µM and a TGI [22] of over 100 µM. It also gave a TGI [23] of over 100 µM, a TGI [24] of over 100 µM and a TGI [25] of 90.8 µM. For the same compound, the TGI [26] was over 100 µM, the TGI [27] was over 100 µM and the TGI [29] was over 100 µM. For the same compound, the TGI [30] was over 100 µM, the TGI [31] was over 100 µM and the TGI [32] was 94.9 µM. The TGI [33] was over 100 µM, the TGI [34] was over 100 µM and the TGI [35] was over 100 µM. The TGI [36] was over 100 µM, the TGI [37] was over 100 µM and the TGI [38] was over 100 µM. It also gave a TGI [40] of over 100 µM, a TGI [41] of over 100 µM and a TGI [42] of over 100 µM. It also gave a TGI [43] of over 100 µM, a TGI [44] of 57 µM and a TGI [45] of over 100 µM. For the same compound, the TGI [46] was over 100 µM, the TGI [47] was over 100 µM and the TGI [48] was over 100 µM. The TGI [49] was over 100 µM, the TGI [50] was over 100 µM and the TGI [52] was over 100 µM. For the same compound, the TGI [54] was over 100 µM, the TGI [55] was over 100 µM and the TGI [56] was over 100 µM. It also gave a TGI [57] of over 100 µM and a TGI [58] of over 100 µM.

Reference: PubChem BioAssay (NCI)
